Drawing on patent US20190330224A1, “ACC INHIBITORS AND USES THEREOF” (Gilead Apollo, LLC, priority 2015, published 2019), this text covers IC50 and MIC for 16 molecules.

In brackets after ≈: the same amount, converted by molar mass. Some results are limits rather than exact numbers.

One experiment has as its target Fungal ACC2 (UniProt Q00955). The note with it: read-out: Fungal ACC2 (IC50, in vitro ACC2 inhibition).
For the next experiment, the system named is C. krusei ATCC 6258. The experiment in a line: Anti-Fungal Activity Assay (broth microtiter MIC), C. krusei. It counts as cell-based, Candida krusei. The note with it: Pichia kudriavzevii, ATCC6258, 48 h, 3 replicates; MIC recorded at 48 h; read-out: MIC C. krusei ATCC 6258. The method, boiled down:
(§1)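 Candida strains were grown from frozen stock on Sabouraud dextrose agar overnight at 35° C, then suspended directly in RPMI 1640+MOPS and quantified against standard curves. Broth microdilution MIC plates followed CLSI M27-A3; MICs were read visually against growth control at 48 h, with a 24 h read added for soraphen.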

A further experiment has as its system C. albicans ATCC 90028. The experiment can be described thus: Anti-Fungal Activity Assay (broth microtiter MIC), C. albicans. It counts as cell-based, Candida albicans. The note with it: Candida albicans, ATCC90028, 48 h, 3 replicates; MIC recorded at 48 h; read-out: MIC C. albicans ATCC 90028. The method, boiled down: as §1
The target of the next experiment is Human ACC2 (Homo sapiens, UniProt O00763). The experiment in a line: In vitro ACC2 inhibition assay (ADP-Glo), human ACC2. It counts as biochemical. The note with it: 5 nM ACC2, 20 μM ATP, 20 μM acetyl-CoA. On the technique in general: In ADP-Glo the light output rises with the ADP produced.
For experiment [1], the system named is C. parapsilosis ATCC 22019. The experiment can be described thus: Anti-Fungal Activity Assay (broth microtiter MIC), C. parapsilosis. The note with it: Lodderomyces parapsilosis, ATCC22019, 48 h, 3 replicates; MIC recorded at 48 h; read-out: MIC C. parapsilosis ATCC 22019. It counts as cell-based, Candida parapsilosis. The procedure, abridged: as §1

Human ACC2, sequence (O00763 whole entry): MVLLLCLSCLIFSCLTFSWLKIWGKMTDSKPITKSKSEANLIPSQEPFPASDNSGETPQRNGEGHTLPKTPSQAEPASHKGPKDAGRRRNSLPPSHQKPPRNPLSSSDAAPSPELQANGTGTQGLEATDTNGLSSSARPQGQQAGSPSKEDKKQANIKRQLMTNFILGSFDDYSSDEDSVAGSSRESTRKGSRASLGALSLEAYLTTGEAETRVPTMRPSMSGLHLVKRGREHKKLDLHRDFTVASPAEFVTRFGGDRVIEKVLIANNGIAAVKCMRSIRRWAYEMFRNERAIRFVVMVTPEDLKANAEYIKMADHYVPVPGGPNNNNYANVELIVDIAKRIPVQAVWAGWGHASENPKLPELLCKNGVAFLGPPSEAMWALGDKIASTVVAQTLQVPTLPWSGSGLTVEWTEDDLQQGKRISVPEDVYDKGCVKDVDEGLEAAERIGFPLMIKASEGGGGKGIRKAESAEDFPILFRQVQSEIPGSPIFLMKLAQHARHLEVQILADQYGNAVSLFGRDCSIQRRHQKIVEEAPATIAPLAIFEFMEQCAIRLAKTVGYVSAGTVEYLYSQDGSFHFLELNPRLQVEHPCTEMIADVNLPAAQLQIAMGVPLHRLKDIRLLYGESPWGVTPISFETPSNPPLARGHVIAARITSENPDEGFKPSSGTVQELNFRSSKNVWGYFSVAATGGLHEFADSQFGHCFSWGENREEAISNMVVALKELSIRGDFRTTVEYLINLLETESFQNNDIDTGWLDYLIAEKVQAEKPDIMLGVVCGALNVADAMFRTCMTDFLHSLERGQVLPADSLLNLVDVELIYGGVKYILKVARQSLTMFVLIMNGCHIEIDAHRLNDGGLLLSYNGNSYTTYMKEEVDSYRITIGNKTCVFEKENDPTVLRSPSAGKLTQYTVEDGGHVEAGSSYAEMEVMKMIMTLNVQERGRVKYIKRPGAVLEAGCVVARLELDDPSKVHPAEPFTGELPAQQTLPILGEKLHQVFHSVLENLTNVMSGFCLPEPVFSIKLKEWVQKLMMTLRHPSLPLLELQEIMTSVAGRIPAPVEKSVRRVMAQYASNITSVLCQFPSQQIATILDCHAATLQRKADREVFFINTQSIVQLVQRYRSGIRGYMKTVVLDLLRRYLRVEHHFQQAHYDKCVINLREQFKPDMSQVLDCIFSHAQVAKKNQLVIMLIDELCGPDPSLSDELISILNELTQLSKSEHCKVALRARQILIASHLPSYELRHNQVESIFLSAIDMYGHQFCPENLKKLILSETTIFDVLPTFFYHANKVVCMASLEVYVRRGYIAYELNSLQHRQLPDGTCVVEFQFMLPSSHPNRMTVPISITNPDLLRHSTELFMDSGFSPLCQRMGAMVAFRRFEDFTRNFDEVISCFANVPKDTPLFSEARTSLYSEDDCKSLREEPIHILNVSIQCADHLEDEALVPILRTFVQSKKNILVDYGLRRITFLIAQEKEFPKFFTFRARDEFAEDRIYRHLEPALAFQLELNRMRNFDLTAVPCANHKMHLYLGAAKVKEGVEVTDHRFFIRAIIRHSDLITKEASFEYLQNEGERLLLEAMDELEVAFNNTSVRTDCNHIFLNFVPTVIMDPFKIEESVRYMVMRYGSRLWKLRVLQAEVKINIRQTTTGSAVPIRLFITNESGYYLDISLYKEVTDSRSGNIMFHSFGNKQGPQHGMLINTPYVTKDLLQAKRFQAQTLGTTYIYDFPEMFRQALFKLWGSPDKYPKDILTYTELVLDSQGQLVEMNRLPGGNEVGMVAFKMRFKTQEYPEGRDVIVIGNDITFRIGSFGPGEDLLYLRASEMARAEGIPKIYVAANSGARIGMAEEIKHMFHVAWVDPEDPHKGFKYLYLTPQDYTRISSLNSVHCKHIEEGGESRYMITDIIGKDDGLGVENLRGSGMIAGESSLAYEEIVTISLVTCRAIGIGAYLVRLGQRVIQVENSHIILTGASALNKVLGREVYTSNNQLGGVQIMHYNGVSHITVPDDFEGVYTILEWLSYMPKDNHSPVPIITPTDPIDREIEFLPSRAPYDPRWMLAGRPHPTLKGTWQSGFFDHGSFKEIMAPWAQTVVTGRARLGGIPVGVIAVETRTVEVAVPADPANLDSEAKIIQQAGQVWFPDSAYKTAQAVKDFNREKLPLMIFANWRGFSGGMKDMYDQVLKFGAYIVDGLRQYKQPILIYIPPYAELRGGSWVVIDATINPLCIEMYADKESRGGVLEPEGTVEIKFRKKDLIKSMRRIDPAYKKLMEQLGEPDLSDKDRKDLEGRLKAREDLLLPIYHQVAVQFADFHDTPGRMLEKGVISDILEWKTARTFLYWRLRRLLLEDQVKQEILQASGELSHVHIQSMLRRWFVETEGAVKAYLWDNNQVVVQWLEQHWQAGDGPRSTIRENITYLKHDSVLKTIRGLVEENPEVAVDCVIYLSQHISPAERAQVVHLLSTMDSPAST
Fungal ACC2, sequence (Q00955 whole entry): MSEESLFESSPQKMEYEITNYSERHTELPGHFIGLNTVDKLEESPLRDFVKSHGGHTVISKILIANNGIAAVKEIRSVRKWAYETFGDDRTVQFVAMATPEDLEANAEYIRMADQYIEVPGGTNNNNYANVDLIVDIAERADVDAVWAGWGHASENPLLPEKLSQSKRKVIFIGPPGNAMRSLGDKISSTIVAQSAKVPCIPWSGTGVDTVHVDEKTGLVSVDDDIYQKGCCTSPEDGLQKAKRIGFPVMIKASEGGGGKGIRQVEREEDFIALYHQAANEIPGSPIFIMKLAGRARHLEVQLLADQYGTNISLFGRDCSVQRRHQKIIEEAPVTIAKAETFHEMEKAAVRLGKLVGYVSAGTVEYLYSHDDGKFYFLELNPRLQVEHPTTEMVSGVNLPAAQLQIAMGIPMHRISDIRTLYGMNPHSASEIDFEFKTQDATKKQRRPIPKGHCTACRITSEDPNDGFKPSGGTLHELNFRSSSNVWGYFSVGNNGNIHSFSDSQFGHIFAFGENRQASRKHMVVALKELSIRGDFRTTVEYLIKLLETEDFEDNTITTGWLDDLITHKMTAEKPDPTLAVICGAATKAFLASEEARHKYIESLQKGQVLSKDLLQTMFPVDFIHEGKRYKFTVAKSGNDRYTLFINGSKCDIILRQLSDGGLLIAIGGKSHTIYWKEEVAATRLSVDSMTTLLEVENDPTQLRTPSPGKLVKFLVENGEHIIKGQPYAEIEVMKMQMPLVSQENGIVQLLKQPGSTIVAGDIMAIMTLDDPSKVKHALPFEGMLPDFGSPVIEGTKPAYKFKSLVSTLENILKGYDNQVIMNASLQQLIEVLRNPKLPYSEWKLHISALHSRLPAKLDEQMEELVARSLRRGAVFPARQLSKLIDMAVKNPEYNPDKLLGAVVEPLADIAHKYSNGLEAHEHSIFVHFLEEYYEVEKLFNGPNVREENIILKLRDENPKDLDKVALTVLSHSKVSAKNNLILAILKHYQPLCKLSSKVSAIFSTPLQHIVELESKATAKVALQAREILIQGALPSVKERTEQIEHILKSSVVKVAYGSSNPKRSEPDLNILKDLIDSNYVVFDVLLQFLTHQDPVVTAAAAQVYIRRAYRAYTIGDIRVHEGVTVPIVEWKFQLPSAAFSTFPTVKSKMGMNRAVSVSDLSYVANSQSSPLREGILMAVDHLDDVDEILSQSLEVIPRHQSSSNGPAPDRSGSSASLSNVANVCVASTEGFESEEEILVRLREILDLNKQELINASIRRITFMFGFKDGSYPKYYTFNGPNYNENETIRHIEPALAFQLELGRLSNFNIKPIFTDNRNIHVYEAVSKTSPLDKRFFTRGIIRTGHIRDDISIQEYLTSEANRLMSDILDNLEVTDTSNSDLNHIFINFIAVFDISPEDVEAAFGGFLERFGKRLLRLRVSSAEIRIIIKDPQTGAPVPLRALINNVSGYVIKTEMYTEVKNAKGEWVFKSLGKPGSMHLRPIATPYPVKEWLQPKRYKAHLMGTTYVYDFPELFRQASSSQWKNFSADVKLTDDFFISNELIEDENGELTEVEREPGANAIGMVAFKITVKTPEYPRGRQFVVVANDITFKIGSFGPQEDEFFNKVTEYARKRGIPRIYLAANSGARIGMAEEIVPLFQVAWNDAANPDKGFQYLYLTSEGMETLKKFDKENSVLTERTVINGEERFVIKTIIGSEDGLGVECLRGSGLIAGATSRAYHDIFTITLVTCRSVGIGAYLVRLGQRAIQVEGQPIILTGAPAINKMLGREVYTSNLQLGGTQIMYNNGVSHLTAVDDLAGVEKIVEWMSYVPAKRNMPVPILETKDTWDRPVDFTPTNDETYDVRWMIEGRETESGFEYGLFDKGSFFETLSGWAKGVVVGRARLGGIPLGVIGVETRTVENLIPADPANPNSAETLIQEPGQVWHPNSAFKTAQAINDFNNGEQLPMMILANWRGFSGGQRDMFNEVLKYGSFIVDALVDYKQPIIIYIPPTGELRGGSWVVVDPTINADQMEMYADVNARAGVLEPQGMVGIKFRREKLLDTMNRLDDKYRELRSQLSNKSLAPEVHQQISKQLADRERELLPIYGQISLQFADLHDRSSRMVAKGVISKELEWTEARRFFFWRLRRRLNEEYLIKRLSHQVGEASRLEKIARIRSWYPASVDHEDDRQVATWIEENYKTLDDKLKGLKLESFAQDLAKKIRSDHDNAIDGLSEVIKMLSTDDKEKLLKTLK

Consider `COCCO[C@@H](Cn1c(=O)n([C@]2(C)CCC(=O)N(C)C2)c(=O)c2c(C)c(-n3nccn3)sc21)c1cc(F)ccc1OC` [Compound I-136, 3-((R)-1,3-dimethyl-6-oxopiperidin-3-yl)-1-((R)-2-(5-fluoro-2-methoxyphenyl)-2-(2-methoxyethoxy)ethyl)-5-methyl-6-(2H-1,2,3-triazol-2-yl)thieno[2,3-d]pyrimidine-2,4(1H,3H)-dione], for which the IC50 was in the range of 0.0007 to 0.002 µM at Fungal ACC2 and 0.01 to 0.1 µM on Human ACC2. Besides, the MIC (in the experiment on C. krusei ATCC 6258; in the experiment on C. albicans ATCC 90028; in experiment [1]) was 2.1 to 4 µg/mL (≈ 3.5 to 6.66 µM) throughout.
For `COCCO[C@@H](Cn1c(=O)n([C@@]2(C)CCC(=O)N(C)C2)c(=O)c2c(C)c(-n3nccn3)sc21)c1cc(F)ccc1OC` [Compound I-137, 3-((S)-1,3-dimethyl-6-oxopiperidin-3-yl)-1-((R)-2-(5-fluoro-2-methoxyphenyl)-2-(2-methoxyethoxy)ethyl)-5-methyl-6-(2H-1,2,3-triazol-2-yl)thieno[2,3-d]pyrimidine-2,4(1H,3H)-dione], the IC50 at Fungal ACC2 lay within 0.002 to 0.01 µM; at Human ACC2, 0.01 to 0.1 µM. Moreover, the MIC (in the experiment on C. krusei ATCC 6258; with C. albicans ATCC 90028; in experiment [1]) was 2.1 to 4 µg/mL (≈ 3.5 to 6.66 µM) each time.
For `COc1ccc(F)cc1[C@H](Cn1c(=O)n([C@]2(C)CCC(=O)N(C)C2)c(=O)c2c(C)c(-n3nccn3)sc21)OCCO` [Compound I-142], the IC50 on Fungal ACC2 lay within 0.0007 to 0.002 µM; on Human ACC2, 0.002 to 0.01 µM. Further, the MIC (in the experiment with C. krusei ATCC 6258; in the experiment with C. albicans ATCC 90028; in experiment [1]) was 2.1 to 4 µg/mL (≈ 3.58 to 6.82 µM) throughout.
For `COc1ccc(F)cc1[C@H](Cn1c(=O)n([C@@]2(C)CCC(=O)N(C)C2)c(=O)c2c(C)c(-n3nccn3)sc21)OCCO` [Compound I-143, 3-((S)-1,3-dimethyl-6-oxopiperidin-3-yl)-1-((R)-2-(5-fluoro-2-methoxyphenyl)-2-(2-hydroxyethoxy)ethyl)-5-methyl-6-(2H-1,2,3-triazol-2-yl)thieno[2,3-d]pyrimidine-2,4(1H,3H)-dione], the IC50 at Fungal ACC2 was 0.0007 to 0.002 µM; at Human ACC2, 0.002 to 0.01 µM. The MIC (in the experiment on C. krusei ATCC 6258; in the experiment on C. albicans ATCC 90028; in experiment [1]) was 2.1 to 4 µg/mL (≈ 3.58 to 6.82 µM) each time.
For `COc1ccc(F)cc1[C@H](Cn1c(=O)n([C@H]2CCN(C)C2=O)c(=O)c2c(C)c(-n3nccn3)sc21)O[C@H]1CC[C@@H](O)CC1` [Compound I-152, 1-((R)-2-(5-fluoro-2-methoxyphenyl)-2-(((1 s, 4S)-4-hydroxycyclohexyl)oxy)ethyl)-5-methyl-3-((S)-1-methyl-2-oxopyrrolidin-3-yl)-6-(2H-1,2,3-triazol-2-yl)thieno[2,3-d]pyrimidine-2,4(1H,3H)-dione], the IC50 at Fungal ACC2 and against Human ACC2 was 0.002 to 0.01 µM in each case. Also, the MIC (in the experiment with C. krusei ATCC 6258; in the experiment on C. albicans ATCC 90028; in experiment [1]) was 0.25 to 1 µg/mL (≈ 0.408 to 1.63 µM) in each case.
For the molecule `COc1ccc(F)cc1[C@H](Cn1c(=O)n([C@@H]2CCN(C)C2=O)c(=O)c2c(C)c(-n3nccn3)sc21)O[C@H]1CC[C@@H](O)CC1` [Compound I-153, 1-((R)-2-(5-fluoro-2-methoxyphenyl)-2-(((1 s, 4S)-4-hydroxycyclohexyl)oxy)ethyl)-5-methyl-3-((R)-1-methyl-2-oxopyrrolidin-3-yl)-6-(2H-1,2,3-triazol-2-yl)thieno[2,3-d]pyrimidine-2,4(1H,3H)-dione], the IC50 at Fungal ACC2 lay in the range of 0.0007 to 0.002 µM; against Human ACC2, 0.002 to 0.01 µM. Also, the MIC is 0.25 to 1 µg/mL (≈ 0.408 to 1.63 µM) with C. krusei ATCC 6258, 0.075 to 0.24 µg/mL (≈ 0.122 to 0.392 µM) with C. albicans ATCC 90028 and 0.25 to 1 µg/mL (≈ 0.408 to 1.63 µM) in experiment [1].
As for `COc1ccc(F)cc1[C@H](Cn1c(=O)n([C@H]2CCN(C)C2=O)c(=O)c2c(C)c(-n3nccn3)sc21)OCCCO` [Compound I-154, 1-((R)-2-(5-fluoro-2-methoxyphenyl)-2-(3-hydroxy-propoxy)ethyl)-5-methyl-3-((S)-1-methyl-2-oxopyrrolidin-3-yl)-6-(2H-1,2,3-triazol-2-yl)thieno[2,3-d]pyrimidine-2,4(1H,3H)-dione], the IC50 at Fungal ACC2 lay in the range of 0.0007 to 0.002 µM; against Human ACC2 it was 0.002 to 0.01 µM. Further, the MIC in the experiment with C. krusei ATCC 6258 was 0.25 to 1 µg/mL (≈ 0.437 to 1.75 µM); with C. albicans ATCC 90028 it was 2.1 to 4 µg/mL (≈ 3.67 to 6.99 µM); in experiment [1], 2.1 to 4 µg/mL (≈ 3.67 to 6.99 µM).
Consider `COc1ccc(F)cc1[C@H](Cn1c(=O)n([C@@H]2CCN(C)C2=O)c(=O)c2c(C)c(-n3nccn3)sc21)OCCCO` [Compound I-155, 1-((R)-2-(5-fluoro-2-methoxyphenyl)-2-(3-hydroxypropoxy)ethyl)-5-methyl-3-((R)-1-methyl-2-oxopyrrolidin-3-yl)-6-(2H-1,2,3-triazol-2-yl)thieno[2,3-d]pyrimidine-2,4(1H,3H)-dione], for which the IC50 at Fungal ACC2 was in the range of 0.0007 to 0.002 µM; against Human ACC2, 0.002 to 0.01 µM. Further, the MIC (with C. krusei ATCC 6258; in the experiment on C. albicans ATCC 90028; in experiment [1]) was 2.1 to 4 µg/mL (≈ 3.67 to 6.99 µM) throughout.
With `COc1ccc(F)cc1[C@H](COc1nc2sc(-n3nccn3)c(C)c2c(=O)n1[C@H]1CCN(C)C1=O)OCCCO` [Compound I-156, 2-((R)-2-(5-fluoro-2-methoxyphenyl)-2-(3-hydroxy-propoxy)ethoxy)-5-methyl-3-((S)-1-methyl-2-oxopyrrolidin-3-yl)-6-(2H-1,2,3-triazol-2-yl)thieno[2,3-d]pyrimidin-4(3H)-one], the IC50 is 0.1 to 1 µM on Fungal ACC2 and greater than 1 µM at Human ACC2. Moreover, the MIC (with C. krusei ATCC 6258; in the experiment on C. albicans ATCC 90028; in experiment [1]) was 2.1 to 4 µg/mL (≈ 3.67 to 6.99 µM) throughout.
Consider `COCCO[C@@H](Cn1c(=O)n([C@H]2CCN(C)C2=O)c(=O)c2c(C)c(-n3nccn3)sc21)c1cc(F)ccc1O` [Compound I-157, 1-((R)-2-(5-fluoro-2-hydroxyphenyl)-2-(2-methoxyethoxy)ethyl)-5-methyl-3-((S)-1-methyl-2-oxopyrrolidin-3-yl)-6-(2H-1,2,3-triazol-2-yl)thieno[2,3-d]pyrimidine-2,4(1H,3H)-dione], for which the IC50 fell in the range of 0.002 to 0.01 µM on Fungal ACC2 and 0.1 to 1 µM on Human ACC2. The MIC (in the experiment on C. krusei ATCC 6258; in the experiment with C. albicans ATCC 90028; in experiment [1]) was 2.1 to 4 µg/mL (≈ 3.76 to 7.16 µM) in each case.
In the case of `COCCO[C@@H](Cn1c(=O)n([C@@H]2CCN(C)C2=O)c(=O)c2c(C)c(-n3nccn3)sc21)c1cc(F)ccc1O` [Compound I-158, 1-((R)-2-(5-fluoro-2-hydroxyphenyl)-2-(2-methoxyethoxy)ethyl)-5-methyl-3-((R)-1-methyl-2-oxopyrrolidin-3-yl)-6-(2H-1,2,3-triazol-2-yl)thieno[2,3-d]pyrimidine-2,4(1H,3H)-dione], the IC50 at Fungal ACC2 lay within 0.002 to 0.01 µM; on Human ACC2, 0.1 to 1 µM. Besides, the minimum inhibitory concentration (MIC) (in the experiment with C. krusei ATCC 6258; in the experiment with C. albicans ATCC 90028; in experiment [1]) was 2.1 to 4 µg/mL (≈ 3.76 to 7.16 µM) throughout.
As to `COc1ccc(F)cc1C(=O)Cn1c(=O)n([C@H]2CCN(C)C2=O)c(=O)c2c(C)c(-n3nccn3)sc21` [Compound I-161, (S)-1-(2-(5-fluoro-2-methoxyphenyl)-2-oxoethyl)-5-methyl-3-(1-methyl-2-oxopyrrolidin-3-yl)-6-(2H-1,2,3-triazol-2-yl)thieno[2,3-d]pyrimidine-2,4(1H,3H)-dione], the IC50 is 0.1 to 1 µM at Fungal ACC2 and greater than 1 µM on Human ACC2. In addition, the MIC (with C. krusei ATCC 6258; in the experiment with C. albicans ATCC 90028; in experiment [1]) was 2.1 to 4 µg/mL (≈ 4.1 to 7.8 µM) throughout.
In the case of `COc1ccccc1C(=O)Cn1c(=O)n([C@H]2CCN(C)C2=O)c(=O)c2c(C)c(-n3nccn3)sc21` [Compound I-163, (S)-1-(2-(2-methoxyphenyl)-2-oxoethyl)-5-methyl-3-(1-methyl-2-oxopyrrolidin-3-yl)-6-(2H-1,2,3-triazol-2-yl)thieno[2,3-d]pyrimidine-2,4(1H,3H)-dione], the results for the IC50 at Fungal ACC2 and at Human ACC2 were 0.1 to 1 µM and greater than 1 µM, respectively. The MIC (with C. krusei ATCC 6258; in the experiment on C. albicans ATCC 90028; in experiment [1]) was 2.1 to 4 µg/mL (≈ 4.25 to 8.09 µM) in each case.
Regarding `COc1ccccc1[C@@H](O)Cn1c(=O)n([C@H]2CCN(C)C2=O)c(=O)c2c(C)c(-n3nccn3)sc21` [Compound I-165, 1-((R)-2-hydroxy-2-(2-methoxyphenyl)ethyl)-5-methyl-3-((S)-1-methyl-2-oxopyrrolidin-3-yl)-6-(2H-1,2,3-triazol-2-yl)thieno[2,3-d]pyrimidine-2,4(1H,3H)-dione], the half-inhibitory concentration (IC50) on Fungal ACC2 lay within 0.002 to 0.01 µM; against Human ACC2 it was 0.01 to 0.1 µM. Further, the MIC (in the experiment with C. krusei ATCC 6258; with C. albicans ATCC 90028; in experiment [1]) was 2.1 to 4 µg/mL (≈ 4.23 to 8.06 µM) each time.
Take `COc1ccccc1C(=O)Cn1c(=O)n([C@@H]2CCN(C)C2=O)c(=O)c2c(C)c(-n3nccn3)sc21` [Compound I-167, (R)-1-(2-(2-methoxyphenyl)-2-oxoethyl)-5-methyl-3-(1-methyl-2-oxopyrrolidin-3-yl)-6-(2H-1,2,3-triazol-2-yl)thieno[2,3-d]pyrimidine-2,4(1H,3H)-dione]: the IC50 on Fungal ACC2 lay within 0.01 to 0.1 µM; on Human ACC2 it was 0.1 to 1 µM. The minimum inhibitory concentration (MIC) (with C. krusei ATCC 6258; in the experiment on C. albicans ATCC 90028; in experiment [1]) was 2.1 to 4 µg/mL (≈ 4.25 to 8.09 µM) in each case.
As to `COc1ccc(F)cc1[C@H](Cn1c(=O)n([C@H]2CCN(C)C2=O)c(=O)c2c(C)c(-n3nccn3)sc21)OC` [Compound I-168, 1-((R)-2-(5-fluoro-2-methoxyphenyl)-2-methoxyethyl)-5-methyl-3-((S)-1-methyl-2-oxopyrrolidin-3-yl)-6-(2H-1,2,3-triazol-2-yl)thieno[2,3-d]pyrimidine-2,4(1H,3H)-dione], the figures for the IC50 at Fungal ACC2 and against Human ACC2 were 0.002 to 0.01 µM and 0.01 to 0.1 µM, respectively. For the same molecule, the MIC (in the experiment on C. krusei ATCC 6258; with C. albicans ATCC 90028; in experiment [1]) was 2.1 to 4 µg/mL (≈ 3.97 to 7.57 µM) throughout.

Broadly, the IC50 is the concentration at which inhibition is half-maximal. For orientation: MIC means the smallest concentration in the dilution series that meets the test's criterion for growth inhibition.
